According to patent publication US5773414A, “Endothelin antagonists” (Warner-Lambert Company, priority 1997, dated 1998):
Structures can show the parent of a compound that is named as a salt. Numbered stars: 1 amine (or outer) side, 2 acyl side, 3 side chain; on linkers, the order of the positions; unused ones are H or OH. Square brackets hold non-standard residues; d marks the D form. Peptide text beside a SMILES is read from it. * marks the point of attachment. X3 = Cc1c(C)c(C)c(C[C@@H](N[*:1])C(=O)[*:2])c(C)c1C; X2 = O=C([C@@H](Cc1c2ccccc2cc2ccccc12)N[*:1])[*:2]; dDip = N[C@@H](C(=O)O)C(c1ccccc1)c1ccccc1; d1Nal = N[C@H](Cc1cccc2ccccc12)C(=O)O; Piv = CC(C)(C)C(=O)*; Tfa = O=C(C(F)(F)F)*

Key:
ETA = target: T1, ETA (Oryctolagus cuniculus, UniProt A5A8K3); test: Endothelin Receptor Binding Assay-A (ETA), intact cell binding of [125I]-ET-1; parameters: species or system rabbit; settings: Table IIa; for IC50: rabbit renal artery vascular smooth muscle cells, read-out: Binding Assay IC50 at Receptor Subtypes ETA
T1 construct: The cells used were rabbit renal artery vascular smooth muscle cells; endogenous in cells; host or cells: rabbit renal artery vascular smooth muscle cells
T1 sequence (A5A8K3 21-427): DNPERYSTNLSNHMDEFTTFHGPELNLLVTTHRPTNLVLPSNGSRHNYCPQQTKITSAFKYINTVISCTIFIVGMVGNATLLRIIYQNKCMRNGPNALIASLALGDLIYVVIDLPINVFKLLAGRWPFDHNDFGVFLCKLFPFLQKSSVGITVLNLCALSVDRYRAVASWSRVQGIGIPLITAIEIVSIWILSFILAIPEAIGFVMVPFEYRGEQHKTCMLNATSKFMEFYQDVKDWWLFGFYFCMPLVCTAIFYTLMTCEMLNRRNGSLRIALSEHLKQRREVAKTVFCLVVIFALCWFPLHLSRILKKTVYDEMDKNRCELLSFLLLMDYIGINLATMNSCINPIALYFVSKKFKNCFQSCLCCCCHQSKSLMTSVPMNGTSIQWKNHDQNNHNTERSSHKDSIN
Description: The cells used were rabbit renal artery vascular smooth muscle cells grown in a 48-well dish (1 cm^2) (confluent cells).
The growth media was Dulbeccos Modified Eagles/Ham's F12 which contained 10 fetal bovine serum and antibiotics (penicillin/streptomycin/fungizone).
Second, remove the assay buffers, place the dish on ice, and add 150 μL of cold assay buffer described above to each well. […] Next, place dish in a 37° C. water bath for about 2 hours and gently agitate the dish every 15 minutes. Discard the radioactive incubation mixture in the sink and wash wells 3 times with 1 mL of cold phosphate buffered saline. Last, add […] of 0.25M sodium hydroxide, agitate for 1 hour on rotator, and then transfer the sodium hydroxide extract to gamma counting tubes and count the radioactivity.

ETB = target: T2, ETB (Rattus norvegicus, UniProt P21451); test: Endothelin Receptor Binding Assay-B (ETB), [125I]-ET-1 binding in rat cerebellar membranes; settings: Table IIa; for IC50: rat cerebellar membranes, read-out: Binding Assay IC50 at Receptor Subtypes ETB
T2 construct: thaw one aliquot of frozen rat cerebellar membranes; from tissue; host or cells: rat cerebellar membranes
T2 sequence (P21451 27-442): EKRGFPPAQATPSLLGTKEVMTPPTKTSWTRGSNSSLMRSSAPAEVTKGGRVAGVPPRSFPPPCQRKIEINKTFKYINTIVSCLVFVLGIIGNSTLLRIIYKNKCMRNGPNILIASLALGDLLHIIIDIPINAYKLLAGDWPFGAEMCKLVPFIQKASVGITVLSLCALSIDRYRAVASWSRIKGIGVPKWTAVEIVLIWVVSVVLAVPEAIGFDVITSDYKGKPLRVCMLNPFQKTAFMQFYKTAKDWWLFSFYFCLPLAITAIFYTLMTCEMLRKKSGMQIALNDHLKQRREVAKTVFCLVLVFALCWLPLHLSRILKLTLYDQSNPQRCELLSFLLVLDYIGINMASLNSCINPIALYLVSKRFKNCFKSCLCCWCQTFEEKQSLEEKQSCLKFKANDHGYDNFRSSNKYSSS
Description: The tissue is made up of 20 mM tris(hydroxymethyl)aminomethane hydrochloride (Trizma) buffer, 2 mM ethylenediaminetetraacetate, 100 μM phenylmethylsulfonyl fluoride.
First, thaw one aliquot of frozen rat cerebellar membranes (2 mg protein in 0.5 mL). Next, add 0.5 mL membrane aliquot to 4.5 mL cold tissue buffer, polytron at 7,500 revolutions per minute for 10 seconds. Finally, dilute tissue suspension 1/100 (0.1 mL suspension+9.9 mL tissue buffer), polytron again, and place ice.
Mix in 150 μL of tissue to each tube, vortex briefly, then tap to force all liquids to bottom (total assay volume=250 μL). Then place the tubes in a 37° C. water bath for 2 hours.
Add 2.5 mL cold water buffer (50 mM Trizma buffer) to each tube, filter, and then wash tube with additional 2.5 mL wash buffer and add to filter. Finally, wash filters with an additional 2.5 mL of cold wash buffer.
Count filters for radioactivity in gamma counter.

Compound	IC50 (ETA)	IC50 (ETB)	inhibition at 10 µM (ETA; @ 10 μM, read-out: Binding Assay % Inhibition at Receptor Subtypes ETA)	inhibition at 10 µM (ETB; @ 10 μM, read-out: Binding Assay % Inhibition at Receptor Subtypes ETB)
CC[C@H](C)[C@H](NC(=O)[C@H](CC(=O)O)NC(=O)[C@H](CC(C)C)NC(=O)[C@H](N)Cc1c(C)c(C)c(C)c(C)c1C)C(=O)N[C@H](C(=O)N[C@@H](Cc1c[nH]c2ccccc12)C(=O)O)[C@@H](C)CC [Example 52, D--Pmp--Leu--Asp--Ile--Ile--Trp] (H-[X3]LDIIW-OH)	6000 nM	3870 nM		
CC[C@H](C)[C@H](NC(=O)[C@H](CC(=O)O)NC(=O)[C@H](CC(C)C)NC(=O)[C@@H](Cc1c(C)c(C)c(C)c(C)c1C)NC(C)=O)C(=O)N[C@H](C(=O)N[C@@H](Cc1c[nH]c2ccccc12)C(=O)O)[C@@H](C)CC [Example 53, Ac--D--Pmp--Leu--Asp--Ile--Ile--Trp] (Ac-[X3]LDIIW-OH)	1500 nM	5500 nM		
CC[C@H](C)[C@H](NC(=O)[C@H](CC(=O)O)NC(=O)[C@H](CC(C)C)NC(=O)[C@H](N)Cc1c2ccccc2cc2ccccc12)C(=O)N[C@H](C(=O)N[C@@H](Cc1c[nH]c2ccccc12)C(=O)O)[C@@H](C)CC [Example 54, D--Ana--Leu--Asp--Ile--Ile--Trp] (H-[X2]LDIIW-OH)	5860 nM	1210 nM		
CC[C@H](C)[C@H](NC(=O)[C@H](CC(=O)O)NC(=O)[C@H](C)NC(=O)[C@@H](Cc1ccccc1)NC(C)=O)C(=O)N[C@H](C(=O)N[C@@H](Cc1c[nH]c2ccccc12)C(=O)O)[C@@H](C)CC [Example 59, Ac--D--Phe--Ala--Asp--Ile--Ile--Trp] (Ac-[dF]ADIIW-OH)	400 nM	300 nM		
CC[C@H](C)[C@H](NC(=O)[C@H](C)NC(=O)[C@H](CC(=O)O)NC(=O)[C@H](CC(C)C)NC(=O)[C@@H](Cc1ccccc1)NC(C)=O)C(=O)N[C@@H](Cc1c[nH]c2ccccc12)C(=O)O [Example 73, Ac--D--Phe--Leu--Asp--Ala--Ile--Trp] (Ac-[dF]LDAIW-OH)	3500 nM	330 nM		
CC[C@H](C)[C@H](NC(=O)[C@H](CC(=O)O)NC(=O)[C@H](CC(C)C)NC(=O)[C@@H](Cc1ccccc1)NC(C)=O)C(=O)N[C@H](C(=O)N[C@@H](Cc1ccc(O)cc1)C(=O)O)[C@@H](C)CC [Example 89, Ac--D--Phe--Leu--Asp--Ile--Ile--Tyr] (Ac-[dF]LDIIY-OH)	> 10000 nM	220 nM		
CC[C@H](C)[C@H](NC(=O)[C@@H]1CCCN1C(=O)[C@H](CC(N)=O)NC(=O)[C@H](CC(C)C)NC(=O)[C@@H](Cc1ccccc1)NC(C)=O)C(=O)N[C@@H](Cc1c[nH]c2ccccc12)C(=O)O [Example 90, Ac--D--Phe--Leu--Asn--Pro--Ile--Trp] (Ac-[dF]LNPIW-OH)	1980 nM	2800 nM		
CC[C@H](C)[C@H](NC(=O)[C@H](Cc1ccccc1)NC(=O)[C@H](CC(=O)O)NC(=O)[C@@H](Cc1ccccc1)NC(C)=O)C(=O)N[C@@H](Cc1c[nH]c2ccccc12)C(=O)O [Example 93, Ac--D--Phe--Asp--Phe--Ile--Trp] (Ac-[dF]DFIW-OH)			37.4%	64.7%
CC[C@H](C)[C@H](NC(=O)[C@H](Cc1ccc(O)cc1)NC(=O)[C@H](N)C(c1ccccc1)c1ccccc1)C(=O)N[C@H](C(=O)N[C@@H](Cc1c[nH]c2ccccc12)C(=O)O)[C@@H](C)CC [Example 95, D--Dip--Tyr--Ile--Ile--Trp] (H-[dDip]YIIW-OH)	8000 nM	350 nM		

The next lines start with the values.

IC50 (ETA)	IC50 (ETB)	inhibition at 10 µM (ETA; @ 10 μM, read-out: Binding Assay % Inhibition at Receptor Subtypes ETA)	inhibition at 10 µM (ETB; @ 10 μM, read-out: Binding Assay % Inhibition at Receptor Subtypes ETB)	Compound
10000 nM	500 nM			CC[C@H](C)[C@H](NC(=O)[C@H](CC(=O)O)NC(=O)[C@H](CC(C)C)NC(=O)[C@H](NC(=O)C(C)(C)C)C(c1ccccc1)c1ccccc1)C(=O)N[C@H](C(=O)N[C@@H](Cc1c[nH]c2ccccc12)C(=O)O)[C@@H](C)CC [Example 38, tBu--D--Dip--Leu--Asp--Ile--Ile--Trp] (Piv-[dDip]LDIIW-OH)
250 nM	900 nM			CC[C@H](C)[C@H](NC(=O)[C@H](CC(=O)O)NC(=O)[C@H](CC(C)C)NC(=O)[C@H](NC(=O)C(F)(F)F)C(c1ccccc1)c1ccccc1)C(=O)N[C@H](C(=O)N[C@@H](Cc1c[nH]c2ccccc12)C(=O)O)[C@@H](C)CC [Example 39, CF3 CO--D--Dip--Leu--Asp--Ile--Ile--Trp] (Tfa-[dDip]LDIIW-OH)
300 nM	450 nM			CC[C@H](C)[C@H](NC(=O)[C@H](CC(=O)O)NC(=O)[C@H](CC(C)C)NC(=O)[C@@H](Cc1cccc2ccccc12)NC(C)=O)C(=O)N[C@H](C(=O)N[C@@H](Cc1c[nH]c2ccccc12)C(=O)O)[C@@H](C)CC [Example 45, Ac-1-D--Nal--Leu--Asp--Ile--Ile--Trp] (Ac-[d1Nal]LDIIW-OH)
480 nM	33 nM			CC[C@H](C)[C@H](NC(=O)[C@H](CCCCN)NC(=O)[C@H](CC(C)C)NC(=O)[C@H](NC(C)=O)C(c1ccccc1)c1ccccc1)C(=O)N[C@H](C(=O)N[C@@H](Cc1c[nH]c2ccccc12)C(=O)O)[C@@H](C)CC [Example 69, Ac--D--Dip--Leu--Lys--Ile--Ile--Trp] (Ac-[dDip]LKIIW-OH)
6430 nM	833 nM			CC[C@H](C)[C@H](NC(=O)[C@H](CC(N)=O)NC(=O)[C@H](CC(C)C)NC(=O)[C@H](N)C(c1ccccc1)c1ccccc1)C(=O)N[C@H](C(=O)N[C@@H](Cc1c[nH]c2ccccc12)C(=O)O)[C@@H](C)CC [Example 70, D--Dip--Leu--Asn--Ile--Ile--Trp] (H-[dDip]LNIIW-OH)
15 nM	80 nM			CC[C@H](C)[C@H](NC(=O)[C@@H](NC(=O)[C@H](CC(=O)O)NC(=O)[C@H](CC(C)C)NC(=O)[C@H](NC(C)=O)C(c1ccccc1)c1ccccc1)C(C)C)C(=O)N[C@@H](Cc1c[nH]c2ccccc12)C(=O)O [Example 81, Ac--D--Dip--Leu--Asp--Val--Ile--Trp] (Ac-[dDip]LDVIW-OH)
8000 nM	> 1000 nM			CC[C@H](C)[C@H](NC(=O)[C@H](CC(=O)O)NC(=O)[C@H](CC(C)C)NC(=O)[C@@H](Cc1ccccc1)NC(C)=O)C(=O)N[C@@H](C)C(=O)N[C@@H](Cc1c[nH]c2ccccc12)C(=O)O [Example 82, Ac--D--Phe--Leu--Asp--Ile--Ala--Trp] (Ac-[dF]LDIAW-OH)
97 nM	630 nM			CC[C@H](C)[C@H](NC(=O)[C@H](CC(=O)O)NC(=O)[C@H](CC(C)C)NC(=O)[C@H](NC(C)=O)C(c1ccccc1)c1ccccc1)C(=O)N[C@H](C(=O)N[C@@H](Cc1c[nH]c2ccccc12)C(=O)O)C(C)C [Example 86, Ac--D--Dip--Leu--Asp--Ile--Val--Trp] (Ac-[dDip]LDIVW-OH)
3700 nM	6300 nM			CC[C@H](C)[C@H](NC(=O)[C@H](CC(=O)O)NC(=O)[C@H](CC(C)C)NC(=O)[C@H](NC(C)=O)C(c1ccccc1)c1ccccc1)C(=O)N[C@H](C(=O)N[C@@H](Cc1ccc(O)cc1)C(=O)O)[C@@H](C)CC [Example 88, Ac--D--Dip--Leu--Asp--Ile--Ile--Tyr] (Ac-[dDip]LDIIY-OH)
> 1000 nM	250 nM			CC[C@H](C)[C@H](NC(=O)[C@H](CC(=O)O)NC(=O)[C@H](NC(C)=O)C(c1ccccc1)c1ccccc1)C(=O)N[C@H](C(=O)N[C@@H](Cc1c[nH]c2ccccc12)C(=O)O)[C@@H](C)CC [Example 94, Ac--D--Dip--Asp--Ile--Ile--Trp] (Ac-[dDip]DIIW-OH; C-terminus assumed)
